Results on five compounds are retold here after patent US6569836B2, “6-O-alkyl-2-nor-2-substituted ketolide derivatives” (Abbott Laboratories, priority 1999, dated 2003).

Experiment in all cases: In vitro antibacterial activity, agar dilution MIC
One assay concerns Candida albicans CCH 442. Type of assay: cell-based. Conditions: code TT, BHI agar, 35-37° C., 20-24 hours, unit assumed. The method, then:
(§1) Each plate was inoculated with 1:100 (or 1:10 for slow-growing strains, such as Micrococcus and Streptococcus) dilutions of up to 32 different microorganisms, using a Steers replicator block. The inoculated plates were incubated at 35-37° C. for 20-24 hours. In addition, a control plate using BHI agar with no test compound was prepared and incubated at the beginning and end of each test. A plate containing erythromycin A was also prepared to provide test-to-test comparability. […] After incubation, each plate was visually inspected. The minimum inhibitory concentration (MIC) was defined as the lowest concentration of drug yielding no growth, a slight haze, or sparsely isolated colonies on the inoculum spot as compared to the growth control.

The test system of assay [1] is Streptococcus pyogenes EES61. Type of assay: cell-based. As to conditions: code LL, BHI agar, 35-37° C., 20-24 hours, unit assumed. The method, then: as §1
Assay [2] deals with Mycobacterium smegmatis ATCC 114. It is filed as cell-based. As to conditions: code UU, BHI agar, 35-37° C., 20-24 hours, unit assumed. The method, then: as §1
Assay [3] has as its system Staphylococcus aureus NCTC 10649M. Type of assay: cell-based. As to conditions: code EE, BHI agar, 35-37° C., 20-24 hours, unit assumed. The method, then: as §1
The subject of assay [4] is Nocardia Asteroides ATCC 99700. Type of assay: cell-based. Conditions: code VV, BHI agar, 35-37° C., 20-24 hours, unit assumed. The method, then: as §1
The subject of assay [5] is Streptococcus Pneumonia ATCC 6303. It is filed as cell-based. As to conditions: code XX, BHI agar, 35-37° C., 20-24 hours, unit assumed. The method, then: as §1
For assay [6], the system named is Streptococcus pyogenes 930. It is filed as cell-based. Conditions: code MM, BHI agar, 35-37° C., 20-24 hours, unit assumed. The method, then:
as §1

Assay [7] deals with Staphylococcus aureus 1775. Type of assay: cell-based. As to conditions: code GG, BHI agar, 35-37° C., 20-24 hours, unit assumed. The method, then: as §1
Assay [8] concerns Staphylococcus aureus A-5177. It is filed as cell-based. As to conditions: code BB, BHI agar, 35-37° C., 20-24 hours, unit assumed. The method, then:
as §1

Assay [9] deals with Staphylococcus aureus A-5278. Type of assay: cell-based. As to conditions: code CC, BHI agar, 35-37° C., 20-24 hours, unit assumed. The method, then: as §1
Assay [10] relates to Staphylococcus epidermidis 3519. Type of assay: cell-based. As to conditions: code HH, BHI agar, 35-37° C., 20-24 hours, unit assumed. The method, then:
as §1

Assay [11] deals with Streptococcus agalactiae CMX 508. It is filed as cell-based. As to conditions: code KK, BHI agar, 35-37° C., 20-24 hours, unit assumed. The method, then:
as §1

Assay [12] relates to Streptococcus bovis A-5169. Type of assay: cell-based. Conditions: code JJ, BHI agar, 35-37° C., 20-24 hours, unit assumed. The method, then: as §1
The subject of assay [13] is Staphylococcus aureus ATCC 6538P. It is filed as cell-based. Conditions: code AA, BHI agar, 35-37° C., 20-24 hours, unit assumed. The method, then:
as §1

Assay [14] has as its system Streptococcus Pneumonia 5649. It is filed as cell-based. Conditions: code ZA, BHI agar, 35-37° C., 20-24 hours, unit assumed. The method, then:
as §1

Assay [15] has as its system Streptococcus pyogenes PIU 2548. It is filed as cell-based. As to conditions: code NN, BHI agar, 35-37° C., 20-24 hours, unit assumed. The method, then: as §1
The test system of assay [16] is Streptococcus Pneumonia GYR 1171. It is filed as cell-based. As to conditions: code YY, BHI agar, 35-37° C., 20-24 hours, unit assumed. The method, then:
as §1

The test system of a further assay is Escherichiacoli JUHL. It is filed as cell-based, Escherichia coli. As to conditions: code QQ, BHI agar, 35-37° C., 20-24 hours, unit assumed. The method, then: as §1
Another assay has as its system Escherichiacoli SS. Type of assay: cell-based, Escherichia coli. Conditions: code RR, BHI agar, 35-37° C., 20-24 hours, unit assumed. The method, then:
as §1

In assay [17] the test system is Streptococcus Pneumonia 5979. Type of assay: cell-based. As to conditions: code ZZ, BHI agar, 35-37° C., 20-24 hours, unit assumed. The method, then:
as §1, with “test.” for “test. A plate containing erythromycin A was also prepared to provide test-to-test comparability.”

The subject of assay [18] is Micrococcusluteus ATCC 4698. Type of assay: cell-based, Micrococcus luteus. As to conditions: code PP, BHI agar, 35-37° C., 20-24 hours, unit assumed. The method, then:
as §1

The test system of assay [19] is Haemophilislnfluenzae DILL AMP R. It is filed as cell-based, Haemophilus influenzae. Conditions: code WW, BHI agar, 35-37° C., 20-24 hours, unit assumed. The method, then:
Representative compounds of the present invention were assayed in vitro for antibacterial activity as follows: twelve petri dishes containing successive aqueous dilutions of the test compound mixed with 10 mL of sterilized Brain Heart Infusion (BHI) agar (Difco 0418-01-5) were prepared. Each plate was inoculated with 1:100 (or 1:10 for slow-growing strains, such as Micrococcus and Streptococcus) dilutions of up to 32 different microorganisms, using a Steers replicator block. The inoculated plates were incubated at 35-37° C. for 20-24 hours. In addition, a control plate using BHI agar with no test compound was prepared and incubated at the beginning and end of each test.
A plate containing erythromycin A was also prepared to provide test-to-test comparability.
After incubation, each plate was visually inspected. The minimum inhibitory concentration (MIC) was defined as the lowest concentration of drug yielding no growth, a slight haze, or sparsely isolated colonies on the inoculum spot as compared to the growth control.

On to `C=CCC1C(=O)OC(CC)C2(C)OC(=O)NC2C(C)C(=O)C(C)CC(C)(OCC=Cc2cnc3ccccc3c2)C(OC2OC(C)CC(N(C)C)C2O)C(C)C1=O` (stereo not shown) [Example 5, Compound of Formula (XI), R^p is Hydrogen, Y is Hydrogen, R^2 is 3-quinolyl R^3 is —CH2CH═CH2 and R^4 is hydrogen], for which the Antibacterial Activity (MIC's) with Candida albicans CCH 442 is greater than 100 µg/mL; in [1], 100 µg/mL; in assay [2], greater than 100 µg/mL; in assay [3], greater than 100 µg/mL; in assay [4] it was greater than 100 µg/mL; in assay [5], 32 µg/mL. The Antibacterial Activity (MIC's) was greater than 100 µg/mL in [6]; greater than 100 µg/mL in assay [7]; greater than 100 µg/mL in [8]; greater than 100 µg/mL in assay [9]; greater than 100 µg/mL in [10]; 100 µg/mL in assay [11]. In addition, the Antibacterial Activity (MIC's) in assay [12] was 25 µg/mL; in assay [13], greater than 100 µg/mL; in [14] it was greater than 128 µg/mL; in assay [15] it was greater than 100 µg/mL; in assay [16] it was 32 µg/mL; with Escherichiacoli JUHL, greater than 100 µg/mL. The Antibacterial Activity (MIC's) in the assay on Escherichiacoli SS was greater than 100 µg/mL; in [17], greater than 128 µg/mL; in assay [18] it was greater than 100 µg/mL.
Take `CC[C@H]1OC(=O)[C@H](C)[C@@H](O[C@H]2C[C@@](C)(OC)[C@@H](O)[C@H](C)O2)[C@H](C)[C@@H](O[C@@H]2O[C@H](C)C[C@H](N(C)C)[C@H]2O)[C@](C)(O)C[C@@H](C)C(=O)[C@H](C)[C@@H](O)[C@]1(C)O` [Ery. A, Erythromycin A, reference compound]: the Antibacterial Activity (MIC's) with Candida albicans CCH 442 is greater than 100 µg/mL; in assay [1], 0.05 µg/mL; in assay [2], 3.1 µg/mL; in assay [3] it was 0.39 µg/mL; in assay [4], 0.1 µg/mL; in [5], 0.06 µg/mL. In addition, the Antibacterial Activity (MIC's) in assay [6] was greater than 100 µg/mL; in assay [7], greater than 100 µg/mL; in assay [8] it was 3.1 µg/mL; in assay [9], greater than 100 µg/mL; in assay [10], 0.39 µg/mL; in assay [11], 0.05 µg/mL. In addition, the Antibacterial Activity (MIC's) in [12] was 0.02 µg/mL; in assay [13], 0.2 µg/mL; in [14] it was 16 µg/mL; in assay [15], 6.2 µg/mL; in [16] it was 0.06 µg/mL; in the assay on Escherichiacoli JUHL it was greater than 100 µg/mL. Further, the Antibacterial Activity (MIC's) with Escherichiacoli SS is 0.78 µg/mL; in [19], 4 µg/mL; in [18], 0.2 µg/mL.
On to `CCC1OC(=O)C(CS(=O)(=O)O)C(=O)C(C)C(OC2OC(C)CC(N(C)C)C2O)C(C)(OCC=Cc2cnc3ccccc3c2)CC(C)C(=O)C(C)C2NC(=O)OC12C` (stereo not shown) [Example 6, Compound of Formula (XI), R^p is Hydrogen, Y is Hydrogen, R^2 is 3-quinolyl, R^3 is —CH2SO3H and R^4 is Hydrogen], for which the Antibacterial Activity (MIC's) in the assay with Candida albicans CCH 442 was greater than 100 µg/mL; in assay [1] it was 0.2 µg/mL; in assay [2], 12.5 µg/mL; in [3], 0.78 µg/mL; in assay [4] it was 0.2 µg/mL; in assay [5], 0.25 µg/mL. For the same compound, the Antibacterial Activity (MIC's) in assay [6] was 25 µg/mL; in assay [7] it was greater than 100 µg/mL; in assay [8] it was 0.78 µg/mL; in assay [9] it was greater than 100 µg/mL; in assay [10], 0.78 µg/mL; in assay [11], 0.2 µg/mL. For the same compound, the Antibacterial Activity (MIC's) is 0.05 µg/mL in assay [12]; 0.39 µg/mL in assay [13]; 2 µg/mL in assay [14]; 0.78 µg/mL in assay [15]; 0.125 µg/mL in assay [16]; greater than 100 µg/mL with Escherichiacoli JUHL. The Antibacterial Activity (MIC's) was 3.1 µg/mL in the assay on Escherichiacoli SS, 64 µg/mL in assay [17], 16 µg/mL in assay [19] and 0.39 µg/mL in assay [18].
Turning to `CCC1OC(=O)CC(=O)C(C)C(OC2OC(C)CC(N(C)C)C2O)C(C)(OCC=Cc2cnc3ccccc3c2)CC(C)C(=O)C(C)C2NC(=O)OC12C` (stereo not shown) [Example 2, Compound of Formula (XI), R^p is Hydrogen, Y is Hydrogen, R^2 is 3-quinolyl, R^3 is Hydrogen and R^4 is Hydrogen], the Antibacterial Activity (MIC's) was greater than 100 µg/mL in the assay on Candida albicans CCH 442; 0.01 µg/mL in [1]; 6.2 µg/mL in assay [2]; 0.39 µg/mL in assay [3]; 0.2 µg/mL in assay [4]; 0.03 µg/mL in assay [5]. The Antibacterial Activity (MIC's) in [6] was 50 µg/mL; in assay [7], greater than 100 µg/mL; in assay [8], 0.39 µg/mL; in assay [9], greater than 100 µg/mL; in assay [10], 0.39 µg/mL; in assay [11] it was 0.02 µg/mL. The Antibacterial Activity (MIC's) in assay [12] was determined as 0.02 µg/mL; in assay [13], 0.39 µg/mL; in [14], 0.5 µg/mL; in assay [15] it was 0.2 µg/mL; in [16], 0.03 µg/mL; in the assay on Escherichiacoli JUHL, 100 µg/mL. In addition, the Antibacterial Activity (MIC's) in the assay on Escherichiacoli SS is 0.39 µg/mL; in [17] it was 8 µg/mL; in assay [19], 8 µg/mL; in assay [18], 0.2 µg/mL.
For the compound `CCC1OC(=O)C(CC(C(=O)OC)C(=O)OC)C(=O)C(C)C(OC2OC(C)CC(N(C)C)C2O)C(C)(OCC=Cc2cnc3ccccc3c2)CC(C)C(=O)C(C)C2NC(=O)OC12C` (stereo not shown) [Example 7, Compound of Formula (XI), R^p is Hydrogen Y is Hydrogen R^2 is 3-quinolyl, R^3 is —CH CH(CO2Me)2 and R^4 is Hydrogen], the Antibacterial Activity (MIC's) in assay [5] was 0.03 µg/mL; in assay [14] it was 0.25 µg/mL; in assay [16], 0.03 µg/mL; in [17] it was 64 µg/mL; in assay [19] it was 8 µg/mL.
